Laboratory results reported in US9724341B2 (priority 2013, dated 2017).
Read-outs that look alike come from different tables or passages of the source.

How the values were obtained:
[1] = for time coated film relatively stable (not more than 20% nicotine loss): 40 μg/foil; for time coated film stable (nicotine): 170 μg/foil
Experimental: Loss of nicotine and m-salicylic acid due to volatility and hygroscopic effects: Nicotine salts can suffer volatility issues and can also be quite hygroscopic. For instance, nicotine sulfate absorbs water so readily that it is shipped in aqueous solution. Hygroscopic effects on nicotine m-salicylate were evaluated for 2 doses at two conditions, 22° C./44% RH (ambient condition) and 40° C./75% RH. According to the Antoine equation for water, 40° C./75% RH translates to supersaturated humidity at 22° C. Each coated EMD array was placed flat on a Petri dish (without a cover) which was then stored at either 22° C./44% RH or 40° C./75% RH. At each time point, at least 4 random individual foils were removed from the array and each foil was extracted with 1.5 ml of 50/50 ACN/water for coated dose determination.

[2] = sensitive LC method for phenol
[3] = remark: listed apart in the source
Experimental: The innate volatility of free base nicotine can be greatly altered once bound to a counterion acid. The stability of nicotine in the resulting salt form can vary widely, ultimately impacting its desirability for commercial consideration. Certain packaging configurations can mitigate nicotine loss. […] Decreasing the equilibrium vapor pressure point is believed to minimize the total nicotine loss. For this study, different packaging configurations were tested to investigate the following variables: container material, presence of adjuncts, and total volume of space. Container materials consisted of either glass or multi-laminate foil pouches. Glass is impermeable to vapors. Once the total volume of the glass container is flooded with nicotine vapors and any surface adsorption occurs, equilibrium is reached and no additional loss of nicotine should be observed. Though foil is also impermeable, the inner surface of the pouch is lined with an ethylene acid copolymer that promotes vapor absorbency. The copolymer should lead to greater nicotine loss within a pouch than a glass vial of the same total volume.
The presence of adjuncts, such as a drug cartridge housing, is a likely scenario for the final commercial product. The composition of the adjunct will affect equilibrium vapor pressure point if it preferentially absorbs vapors. For this study, a polycarbonate adjunct with a surface area of ˜150 cm^2 was introduced to the glass vial and pouch scenarios. Finally, the total packaging volume was examined. The smaller the available space, the sooner the equilibrium pressure can be reached. Open containers represent the worst case scenario, as the infinite space means that the equilibrium pressure can never be achieved. To set up the experiment, screening foils were spray coated with a 1×2 cm footprint of nicotine m-salicylate to a thickness of ˜11 ug nicotine/mm^2 (equivalent to a coated dose of 200 ug nicotine equivalent on an EMD foil). After a few random screening foils were assayed for initial time point coated dose, the remaining foils were placed in one of the following containers: • Capped glass vial (˜40 mL volume) • Heat-sealed standard pouch (˜133 mm×87 mm) • Heat-sealed standard pouch, stored with polycarbonate material (˜150 cm^2 surface area) • Uncapped glass vial (same vial as first bullet) • Binder-clipped (semi-sealed) standard pouch (˜133 mm×87 mm) • Capped glass vial, stored with polycarbonate • Heat-sealed half pouch (˜69 mm×87 mm) • Uncovered Petri dish
The packaged screening foils were stored at either 40° C. (oven) or 25° C. (laboratory cabinet), without relative humidity control. At pre-determined time points, three foils from each condition were washed with 5 mL of 50% v/v acetonitrile in water and analyzed on the HPLC for nicotine and m-salicylate content.

[4] = for Nicotine Mass Loss: isothermal TGA, API powder
Experimental: A typical calorimetric scan of nicotine m-salicylate powder is illustrated in FIG. 2. […] Thermogravimetric analysis on the powder was run in both scanning and isothermal modes. […] Isothermal data were also obtained on the API powder (˜10 mg per run) at 40° C., 50° C., and 60° C. for periods of at least 3 days.

[5] = remark: listed apart in the source
Experimental: Solubility limit tests were performed on nicotine m-salicylate in a number of relevant solvents. […] The approximate saturation limits are in units of mg nicotine equivalent per mL of solvent. […] However, the analytical methods developed for detecting impurities related to the m-salicylate use 236 nm as the detection wavelength. Methanol has high absorbance in this range and can therefore interfere with the analytes of interest. Acetonitrile, on the other hand, has low background absorbance in this wavelength range and is therefore ideal for use.

[6] = for mechanical integrity of the film: dropped 5 times
Experimental: Fragility of the spray coating was tested using two foil arrays coated with ˜200 μg of nicotine per foil (˜11 μg nicotine/mm^2, which is about a 21 μm thick film of nicotine m-salicylate). Five foils from each array were assayed for pre-drop coated dose. Each foil array was then placed into a dose cartridge, sealed into a plastic tube, and dropped 3 times onto the floor from a height of about 1 meter. Five additional foils from each array were assayed for the post-drop coated dose.
In a follow-up study, we studied the effect of thickness on the mechanical integrity of the film. In this experiment, three foils from an array were assayed for pre-drop coated dose. Each foil array was then placed into a dose cartridge, sealed into a plastic tube, and dropped 5 times onto the floor from a height of about 1 meter. Three foils from each array were then assayed for the post-drop coated dose.

[7] = 25° C.; cited from earlier work
[8] = film thickness 29 μm, Post-drop (5 drops, about 1 meter)
[9] = film thickness 37 μm, Post-drop (5 drops, about 1 meter)

Compound: CN1CCCC1c1cccnc1.O=C(O)c1cccc(O)c1 (stereo not drawn) [Nicotine m-salicylate, nicotine meta-salicylate]
- time coated film relatively stable (not more than 20% nicotine loss) ([1]; 22° C./60% RH): up to 4 weeks
- time coated film relatively stable (not more than 20% nicotine loss) ([1]; 35° C./80% RH): ≤ 5 days
- time coated film relatively stable (not more than 20% nicotine loss) ([1]; 60° C./35% RH): up to 4 hours
- time coated film stable (nicotine) ([1]; 22° C./60% RH): ≥ 4 weeks
- time coated film stable (nicotine) ([1]; 25° C./90% RH): ≥ 13 days
- time coated film stable (nicotine) ([1]; 35° C./80% RH): ≥ 7 days
- time coated film stable (nicotine) ([1]; 60° C./35% RH): at least 8 hours
- M-salicylic acid stability of coated films ([1]; all conditions except the 40 μg/foil dose at 25° C./90% RH): relatively stable
- maximum content of phenol in aerosols (estimated from method sensitivity; phenol not observed) [2]: ≤ 0.013%
- MMAD (NGI cups coated with 1% (w/v) benzoic acid): 0.9 um
- MMAD (bare NGI cups, 30 LPM, average): 0.7 μm
- Particle size (overall conclusion): about 1 μm
- loss of nicotine content ([3]; 25° C., Petri dish, 18 weeks): 13%
- m-salicylic acid content ([3]; 25° C., all eight conditions): stable
- Nicotine loss ([3]; 25° C., up to 18 weeks, all conditions except Petri dish): ≤ 7 % of initial
- m-salicylate content ([3]; 40° C., all other configurations, 16 weeks): 100-110 % of initial
- loss of nicotine content ([3]; 40° C., all other stabilized (sealed) conditions): ≤ 10%
- loss of nicotine content ([3]; 40° C., sealed standard sized pouches containing polycarbonate material): ~20%
- m-salicylate content ([3]; Petri dish, four weeks at 40° C.): ~80 % of initial
- Nicotine Mass Loss ([4]; 40° C.): 5 µg/day
- Nicotine Mass Loss ([4]; 50° C.): 19 µg/day
- Nicotine Mass Loss ([4]; 60° C.): 107 µg/day
- residual after scanning TGA ([4]; room temperature to 500° C., pan weighed before and after): ~0.2%
- nicotine mass loss, times less than nicotine ortho-salicylate ([4]; storage temperatures between 40-60° C.): 2-3 ×
- Saturation point ([5]; 50/50 acetonitrile/water): 64 mg nicotine/mL
- Saturation point ([5]; 80/20 methanol/water): 118 mg nicotine/mL
- Saturation point ([5]; Acetonitrile): 9 mg nicotine/mL
- Saturation point ([5]; Ethanol): 33 mg nicotine/mL
- Saturation point ([5]; Methanol): 103 mg nicotine/mL
- Saturation point ([5]; Water): 58 mg nicotine/mL
- Saturation point ([5]; acetone): <<10 mg nicotine/mL
- solubility ([5]; acetone): < 10000 µg/mL
- solubility ([5]; pure acetonitrile): ~10000 µg/mL
- mechanical integrity of the film ([6]; 350 μg nicotine (~37 μm thick)): begin to show signs of fragility
- M-salicylate coated dose (average ± 1 standard deviation) [6, 8]: 244 ± 3
- Nicotine coated dose (average ± 1 standard deviation) [6, 8]: 277 ± 3
- M-salicylate coated dose (average ± 1 standard deviation) ([6]; film thickness 29 μm, Pre-drop): 247 ± 1
- Nicotine coated dose (average ± 1 standard deviation) ([6]; film thickness 29 μm, Pre-drop): 275 ± 3
- M-salicylate coated dose (average ± 1 standard deviation) [6, 9]: 299 ± 7
- Nicotine coated dose (average ± 1 standard deviation) [6, 9]: 335 ± 6
- M-salicylate coated dose (average ± 1 standard deviation) ([6]; film thickness 37 μm, Pre-drop): 311 ± 0
- Nicotine coated dose (average ± 1 standard deviation) ([6]; film thickness 37 μm, Pre-drop): 347 ± 6
- coated dose post-drop vs pre-drop, average of two arrays ([6]; ~200 μg nicotine per foil, dropped 3 times): ~0.8%
- mechanical integrity of the film ([6]; ~29 μm thickness): not lost

Compound: CN1CCCC1c1cccnc1 (stereo not drawn) [Nicotine]
- vapor pressure [7]: 0.0425 mmHg

Compound: CN1CCCC1c1cccnc1.O=C(O)C(O)C(O)C(=O)O (stereo not drawn) [Nicotine bitartrate]
- Nicotine Mass Loss ([4]; 40° C.): 1 µg/day
- Nicotine Mass Loss ([4]; 50° C.): 3 µg/day
- Nicotine Mass Loss ([4]; 60° C.): 10 µg/day

Compound: CN1CCC[C@H]1c1cccnc1.O=C(O)c1ccccc1O [Nicotine o-salicylate, nicotine ortho-salicylate]
- Nicotine Mass Loss ([4]; 40° C.): 15 µg/day
- Nicotine Mass Loss ([4]; 50° C.): 48 µg/day
- Nicotine Mass Loss ([4]; 60° C.): 178 µg/day

Compound: Nicotine bifumarate
- Nicotine Mass Loss ([4]; 40° C.): 12 µg/day
- Nicotine Mass Loss ([4]; 50° C.): 66 µg/day
- Nicotine Mass Loss ([4]; 60° C.): 305 µg/day

Compound: CN1CCCC1c1cccnc1.O=C(O)/C=C/C(=O)O (stereo not drawn) [Nicotine monofumarate]
- Nicotine Mass Loss ([4]; 40° C.): 7 µg/day
- Nicotine Mass Loss ([4]; 50° C.): 39 µg/day
- Nicotine Mass Loss ([4]; 60° C.): 219 µg/day

Compound: CC(C)(C(=O)O)C(=O)O.CC(C)(C(=O)O)C(=O)O.CN1CCCC1c1cccnc1 (stereo not drawn) [Nicotine bidimethylmalonate]
- Nicotine Mass Loss ([4]; 40° C.): 4 µg/day
- Nicotine Mass Loss ([4]; 50° C.): 14 µg/day
- Nicotine Mass Loss ([4]; 60° C.): 53 µg/day
